Measurements as given in PMC10349806 (Nature Communications, 2023).
Values joined by “and” are separate entries in the source; they are usually repeats but may differ in a detail not shown here. Equal values may be shown once. Read-outs that look alike come from different tables or passages of the source.

Key:
Format in all cases: cell-based, Plasmodium falciparum
PfCRT variant E207H = test: CQ uptake assay, oocytes expressing E207H; conditions: for Km: read-out: KM ± SEM
Experimental: (§1) Site-directed mutagenesis of PfCRT^Dd2 was performed as described using the megaprimer method with overlap extension[21],[54]. The primer pairs used are listed in Supplementary Table 6. Please note that a codon-optimized and oocyte-adapted version of PfCRT^Dd2 was used[22] (Supplementary Fig. 16). The resulting DNA fragment was cloned into the SP64T expression vector and verified by sequencing.
(§2) Oocytes were obtained as described previously. Briefly, adult (>2 years old) female X. laevis frogs (NASCO) were anesthetized in a cooled solution of ethyl 3-amino benzoate methanesulfonate (0.1%, w/v), followed by a surgical removal of parts of the ovary. The ovary lobes were carefully dissected and small pieces of oocytes were incubated in Ca^2+-free ND96 buffer (96 mM NaCl, 2 mM KCl, 1 mM MgCl2 buffered with 5 mM HEPES/NaOH, pH 7.5) supplemented with collagenase D (0.1%, w/v; Roche), BSA (0.5%, w/v), and 9 mm Na2HPO4 at 18 °C for 14-16 h while gentle shaking. After incubation, the oocytes were carefully washed several times with ND96 buffer (96 mM NaCl, 2 mM KCl, 1.8 mM CaCl2, 1 mM MgCl2 buffered with 5 mM HEPES/NaOH, pH 7.5) supplemented with 100 mg l^−1 gentamycin). Defolliculated and healthy-looking stage V-VI oocytes were manually selected for RNA microinjection. The RNA was generated as following: The codon-optimized sequences of PfCRT variants were cloned into the pSP64T expression vector. After vector linearization using the restriction endonucleases BamHI or SalI (New England Biolabs), transcription was performed using the in vitro SP6 mMessage mMachine Kit (Ambion)[34]. The obtained RNA was kept at −80 °C and diluted with nuclease-free water to a concentration of 0.6 μg μl^−1. Precision-bore glass capillary tubes (3.5-inch glass capillaries; Drummond Scientific Co.) were pulled on a vertical puller (P-87 Flaming/Brown micropipette puller, Sutter Instrument Co.), graduated, and placed on a microinjector (Nanoject II Auto-Nanoliter Injector, Drummond Scientific Co.). 50 nl of nuclease-free water alone (control oocytes) or 50 nl of 0.6 μg μl^−1 RNA were injected under stereomicroscopic control. Injected oocytes were incubated for 46–72 h at 18 °C with twice-daily buffer changes before usage in experiments.
Drug uptake assays were performed as described previously[21],[22],[24],[34]. […] The direction of radio-labeled drug transport is here from the mostly acidic extracellular solution (pH 4.5 or 6.0, as indicated) into the oocyte cytosol (pH ∼ 7.2), which corresponds to the efflux of drug from the acidic digestive vacuole (pH 5.2) into the parasite cytoplasm (pH 7.2). The topology of PfCRT in the oolemma is such that both the N- and C-terminus face the extracellular milieu[3],[22]. In the parasite, the N- and C-terminus face the lumen of the digestive vacuole. […] For determination of the amount of drug uptake for each oocyte, the reaction medium was removed and the oocytes were washed three times with 2 ml of ice-cold ND96 buffer. Each oocyte was individually transferred to a scintillation vial containing 5% sodium dodecyl sulfate (200 μl) for lysis. […] Oocytes that were injected with water instead of RNA were analyzed in parallel, representing the uptake of a drug by diffusion and/or endogenous permeation pathways. The resulting value represents the “background“ level of drug accumulation in oocytes (in-depth discussion in[22]). The specific PfCRT-mediated uptake was determined by subtracting the corresponding background value measured in water-injected oocytes from that of PfCRT-expressing oocytes. In all cases, at least three separate experiments were performed on oocytes from different frogs (biological replicate), and for each condition in an experiment, measurements were made from 10 oocytes per treatment. For pH 5.5, 6.0, and 6.5, ND96 was buffered with 5 mM MES/Tris base.

PfCRT variant E18A = test: CQ uptake assay, oocytes expressing E18A
Experimental: as §1, §2
Drug uptake assays were performed as described previously[21],[22],[24],[34]. […] The direction of radio-labeled drug transport is here from the mostly acidic extracellular solution (pH 4.5 or 6.0, as indicated) into the oocyte cytosol (pH ∼ 7.2), which corresponds to the efflux of drug from the acidic digestive vacuole (pH 5.2) into the parasite cytoplasm (pH 7.2). The topology of PfCRT in the oolemma is such that both the N- and C-terminus face the extracellular milieu[3],[22]. In the parasite, the N- and C-terminus face the lumen of the digestive vacuole. CQ uptake kinetics were performed by incubating oocytes in ND96 buffer adjusted to a pH of 4.5, 5.0, 5.5, or 6.0 and supplemented with 50 nM [^3H]CQ and one of 7 different CQ concentrations (10 µM, 50 µM, 100 µM, 200 µM, 300 µM, 400 µM, 500 µM CQ). The reaction was stopped at the 60 min time point, which is in the linear uptake range[22],[34] (Supplementary Fig. 17). For determination of the amount of drug uptake for each oocyte, the reaction medium was removed and the oocytes were washed three times with 2 ml of ice-cold ND96 buffer. Each oocyte was individually transferred to a scintillation vial containing 5% sodium dodecyl sulfate (200 μl) for lysis. The radioactivity of each sample was measured using a liquid scintillation analyzer Tri-Carb 4910 TR (PerkinElmer). Oocytes that were injected with water instead of RNA were analyzed in parallel, representing the uptake of a drug by diffusion and/or endogenous permeation pathways. The resulting value represents the “background“ level of drug accumulation in oocytes (in-depth discussion in[22]). […]

PfCRT variant F203A = test: CQ uptake assay, oocytes expressing F203A
Experimental: as §1, §2
Drug uptake assays were performed as described previously[21],[22],[24],[34]. […] The direction of radio-labeled drug transport is here from the mostly acidic extracellular solution (pH 4.5 or 6.0, as indicated) into the oocyte cytosol (pH ∼ 7.2), which corresponds to the efflux of drug from the acidic digestive vacuole (pH 5.2) into the parasite cytoplasm (pH 7.2). The topology of PfCRT in the oolemma is such that both the N- and C-terminus face the extracellular milieu[3],[22]. In the parasite, the N- and C-terminus face the lumen of the digestive vacuole. CQ uptake kinetics were performed by incubating oocytes in ND96 buffer adjusted to a pH of 4.5, 5.0, 5.5, or 6.0 and supplemented with 50 nM [^3H]CQ and one of 7 different CQ concentrations (10 µM, 50 µM, 100 µM, 200 µM, 300 µM, 400 µM, 500 µM CQ). The reaction was stopped at the 60 min time point, which is in the linear uptake range[22],[34] (Supplementary Fig. 17). […] The radioactivity of each sample was measured using a liquid scintillation analyzer Tri-Carb 4910 TR (PerkinElmer). Oocytes that were injected with water instead of RNA were analyzed in parallel, representing the uptake of a drug by diffusion and/or endogenous permeation pathways. […]

[1] = E207H, 50 µM CQ, 1 h, mean ± SEM
[2] = E18A, 50 µM CQ, 1 h, mean ± SEM
[3] = pH 4.5, single replicates, Fig 1d left
[4] = pH 6.0, single replicates, Fig 1d left
[5] = F203A, 50 µM CQ, 1 h, mean ± SEM

Question: What does the source list for `CCN(CC)CCCC(C)Nc1ccnc2cc(Cl)ccc12` (centres unmarked) [CQ, chloroquine]?
Answer: E207H transport activity (PfCRT variant E207H; 10 μM CQ, pH 4.5): 0.41 pmol oocyte-1 h-1 and 0.39 pmol oocyte-1 h-1 and 0.48 pmol oocyte-1 h-1; E207H transport activity (PfCRT variant E207H; 10 μM CQ, pH 6.0): 0.74 pmol oocyte-1 h-1 and 0.57 pmol oocyte-1 h-1 and 1.12 pmol oocyte-1 h-1 and 0.76 pmol oocyte-1 h-1; E207H transport activity (PfCRT variant E207H; 50 μM CQ, pH 4.5): 2.07 pmol oocyte-1 h-1 and 1.95 pmol oocyte-1 h-1 and 1.52 pmol oocyte-1 h-1; E207H transport activity (PfCRT variant E207H; 50 μM CQ, pH 6.0): 4.71 pmol oocyte-1 h-1 and 5.16 pmol oocyte-1 h-1 and 4.70 pmol oocyte-1 h-1 and 3.98 pmol oocyte-1 h-1; E207H transport activity (PfCRT variant E207H; 100 μM CQ, pH 4.5): 4.26 pmol oocyte-1 h-1 and 4.32 pmol oocyte-1 h-1 and 4.33 pmol oocyte-1 h-1 and 5.17 pmol oocyte-1 h-1; E207H transport activity (PfCRT variant E207H; 100 μM CQ, pH 6.0): 8.51 pmol oocyte-1 h-1 and 8.56 pmol oocyte-1 h-1 and 9.98 pmol oocyte-1 h-1 and 9.68 pmol oocyte-1 h-1; E207H transport activity (PfCRT variant E207H; 200 μM CQ, pH 4.5): 6.09 pmol oocyte-1 h-1 and 7.31 pmol oocyte-1 h-1 and 7.21 pmol oocyte-1 h-1; E207H transport activity (PfCRT variant E207H; 200 μM CQ, pH 6.0): 12.59 pmol oocyte-1 h-1 and 12.95 pmol oocyte-1 h-1 and 14.47 pmol oocyte-1 h-1 and 12.58 pmol oocyte-1 h-1; E207H transport activity (PfCRT variant E207H; 300 μM CQ, pH 4.5): 7.95 pmol oocyte-1 h-1 and 7.89 pmol oocyte-1 h-1 and 7.92 pmol oocyte-1 h-1 and 8.79 pmol oocyte-1 h-1; E207H transport activity (PfCRT variant E207H; 300 μM CQ, pH 6.0): 15.93 pmol oocyte-1 h-1 and 18.38 pmol oocyte-1 h-1 and 15.91 pmol oocyte-1 h-1 and 15.89 pmol oocyte-1 h-1; E207H transport activity (PfCRT variant E207H; 400 μM CQ, pH 4.5): 8.22 pmol oocyte-1 h-1 and 9.32 pmol oocyte-1 h-1 and 10.99 pmol oocyte-1 h-1 and 9.19 pmol oocyte-1 h-1; E207H transport activity (PfCRT variant E207H; 400 μM CQ, pH 6.0): 18.75 pmol oocyte-1 h-1 and 17.55 pmol oocyte-1 h-1 and 18.62 pmol oocyte-1 h-1; E207H transport activity (PfCRT variant E207H; 500 μM CQ, pH 4.5): 8.40 pmol oocyte-1 h-1 and 9.28 pmol oocyte-1 h-1 and 9.33 pmol oocyte-1 h-1 and 9.38 pmol oocyte-1 h-1; E207H transport activity (PfCRT variant E207H; 500 μM CQ, pH 6.0): 19.42 pmol oocyte-1 h-1 and 18.73 pmol oocyte-1 h-1 and 21.15 pmol oocyte-1 h-1 and 18.43 pmol oocyte-1 h-1; E207H transport activity pH 4.5 (PfCRT variant E207H; CQ uptake, oocytes expressing E207H, pH 4.5, individual replicates (Fig 6c)): 2.07 pmol oocyte-1 h-1 and 1.95 pmol oocyte-1 h-1 and 1.52 pmol oocyte-1 h-1; E207H transport activity pH 5.0 (PfCRT variant E207H; CQ uptake, oocytes expressing E207H, pH 5.0, individual replicates (Fig 6c)): 2.16 pmol oocyte-1 h-1 and 3.19 pmol oocyte-1 h-1 and 2.08 pmol oocyte-1 h-1 and 1.56 pmol oocyte-1 h-1; E207H transport activity pH 5.5 (PfCRT variant E207H; CQ uptake, oocytes expressing E207H, pH 5.5, individual replicates (Fig 6c)): 2.52 pmol oocyte-1 h-1 and 2.31 pmol oocyte-1 h-1 and 4.16 pmol oocyte-1 h-1 and 3.55 pmol oocyte-1 h-1; E207H transport activity pH 6.0 (PfCRT variant E207H; CQ uptake, oocytes expressing E207H, pH 6.0, individual replicates (Fig 6c)): 4.71 pmol oocyte-1 h-1 and 5.16 pmol oocyte-1 h-1 and 4.70 pmol oocyte-1 h-1 and 3.98 pmol oocyte-1 h-1; E207H transport activity pH 6.5 (PfCRT variant E207H; CQ uptake, oocytes expressing E207H, pH 6.5, individual replicates (Fig 6c)): 3.76 pmol oocyte-1 h-1 and 4.49 pmol oocyte-1 h-1 and 4.51 pmol oocyte-1 h-1 and 2.60 pmol oocyte-1 h-1; E207H transport activity pH 7.0 (PfCRT variant E207H; CQ uptake, oocytes expressing E207H, pH 7.0, individual replicates (Fig 6c)): 2.49 pmol oocyte-1 h-1 and 3.47 pmol oocyte-1 h-1 and 3.41 pmol oocyte-1 h-1 and 2.67 pmol oocyte-1 h-1; Vmax ± SEM (PfCRT variant E207H; E207H, pH 4.5): 13 ± 1 pmol h^−1 oocyte ^−1; Km (PfCRT variant E207H; E207H, pH 4.5): 230 ± 35 µM; Vmax ± SEM (PfCRT variant E207H; E207H, pH 6.0): 29 ± 1 pmol h^−1 oocyte ^−1; Km (PfCRT variant E207H; E207H, pH 6.0): 230 ± 20 µM; Activity at pH 4.5 (PfCRT variant E207H; [1]): 1.99 ± 0.16 pmol h-1 oocyte-1; Activity at pH 6.0 (PfCRT variant E207H; [1]): 4.64 ± 0.21 pmol h-1 oocyte-1; R-value (PfCRT variant E207H; E207H, CQ transport at pH 4.5 / pH 6.0): 0.43 ± 0.03; E207H transport activity pH 4.5 (PfCRT variant E207H; pH 4.5, individual replicates, Fig 6b): 2.07 pmol oocyte-1 h-1 and 1.95 pmol oocyte-1 h-1 and 1.52 pmol oocyte-1 h-1; E207H transport activity pH 6.0 (PfCRT variant E207H; pH 6.0, individual replicates, Fig 6b): 4.71 pmol oocyte-1 h-1 and 5.16 pmol oocyte-1 h-1 and 4.70 pmol oocyte-1 h-1 and 3.98 pmol oocyte-1 h-1; E207H R-value (PfCRT variant E207H; ratio of activity pH 4.5 / pH 6.0): 0.51 and 0.40 and 0.41 and 0.38; Activity at pH 4.5 (PfCRT variant E18A; [2]): 1.51 ± 0.34 pmol h-1 oocyte-1; Activity at pH 6.0 (PfCRT variant E18A; [2]): 2.60 ± 0.53 pmol h-1 oocyte-1; R-value (PfCRT variant E18A; E18A, CQ transport at pH 4.5 / pH 6.0): 0.57 ± 0.06; E18A transport activity pH 4.5 (PfCRT variant E18A; [3]): 2.19 pmol oocyte-1 h-1 and 1.60 pmol oocyte-1 h-1 and 0.74 pmol oocyte-1 h-1; E18A R-value (PfCRT variant E18A; pH 4.5 vs pH 6.0, Fig 1d left): 0.57 and 0.70 and 0.44; E18A transport activity pH 6.0 (PfCRT variant E18A; [4]): 3.85 pmol oocyte-1 h-1 and 2.27 pmol oocyte-1 h-1 and 1.67 pmol oocyte-1 h-1; Activity at pH 4.5 (PfCRT variant F203A; [5]): 0.93 ± 0.19 pmol h-1 oocyte-1; Activity at pH 6.0 (PfCRT variant F203A; [5]): 2.55 ± 0.14 pmol h-1 oocyte-1; R-value (PfCRT variant F203A; F203A, CQ transport at pH 4.5 / pH 6.0): 0.36 ± 0.07; F203A transport activity pH 4.5 (PfCRT variant F203A; [3]): 0.48 pmol oocyte-1 h-1 and 1.22 pmol oocyte-1 h-1 and 1.1 pmol oocyte-1 h-1; F203A transport activity pH 6.0 (PfCRT variant F203A; [4]): 2.29 pmol oocyte-1 h-1 and 2.47 pmol oocyte-1 h-1 and 2.88 pmol oocyte-1 h-1
